Assay results reported in patent publication EP0685467A1, “NOVEL PYRIMIDINE DERIVATIVE AND MEDICINAL COMPOSITION” (NKK CORPORATION, priority 1993, dated 1995).

What was measured:
[1] = system: rat aorta; test: Inhibitory activity of vasoconstriction: angiotensin II induced constriction of rat aorta rings (Magnus apparatus); format: cell-based; settings: constriction induced by 3 x 10⁻⁸ angiotensin II
Description: The applicability of the compound of the present invention was confirmed by the function to inhibit constriction of rat aorta induced by angiotensin II.
Stetharteries of Wistar male rats having body weights of 150 to 250 g (Japan Charles River Inc.) were excised. After the attached connective tissue was removed, the cavities of the veins were rubbed by yarn to remove the endothelial cells and prepare ring samples. The samples were suspended in a 5ml organ bath which was filled with Krebs-Henseleit solution (unit mM; NaCl = 118, KCl = 4.7, CaCl₂ = 2.55, MgSO₄ = 1.18, KH₂PO₄ = 1.18, NaHCO₃ = 24.88, glucose = 11.1) and held at 37°C and bubbled with 95% O₂-5% CO₂. After an initial tension of 1.5 g was applied and preincubation was carried out for 60 minutes, the compounds to be tested (3 x 10⁻⁸ or 1 x 10⁻⁸) were administered. After 15 minutes, 3 x 10⁻⁸ angiotensin II was accumulatively added and the reaction of constriction was measured. The rate of inhibition was evaluated by comparing the reaction of constriction, which had been previously measured, in the case of administration of 3 x 10⁻⁸ angiotensin II in the absence of the compounds to be tested.
The constriction of the samples was ionotropicaly measured using an isometric transducer (UL-10GR: Minebea) and amplifier (6M92: NEC SANEI) and recorded by a recticorder (RECTI-HORIZ-8K: NEC SANEI).

[2] = system: ICR male mice; test: Toxicity Example: intraperitoneal administration to mice; format: in vivo; settings: intraperitoneally, 500 mg/kg, 4- to 5-week-old ICR male mice
Description: The compounds of Examples 3, 19, 20, or 23 were intraperitoneally administered to 4- to 5-week-old ICR male mice in an amount of 500 mg/kg.

[3] = system: ICR male and female mice; test: Toxicity Example: oral administration to mice; format: in vivo; settings: orally, 1000 mg/kg, 6-week-old ICR male and female mice
Description: The compounds of Examples 15, 19, or 47 were orally administered to 6-week-old ICR male and female mice in an amount of 1000 mg/kg.

CCCCc1nc(C)cc(=O)n1Cc1ccc(-c2ccccc2-c2nnn[nH]2)cc1 [Comparative compound A, 2-butyl-6-methyl-3-[2'-(1H-tetrazol-5-yl)biphenyl-4-yl]methylpyrimidin-4-one, reference compound]
Rate of inhibition (%) ([1]; compound 1 x 10⁻⁸ M): 8% | Rate of inhibition (%) ([1]; compound 3 x 10⁻⁸ M): 37%

CCCCc1nc(C)c(Cc2ccccc2)c(=O)n1Cc1ccc(-c2ccccc2-c2nnn[nH]2)cc1 [Comparative compound B, 5-benzyl-2-butyl-6-methyl-3-[2'-(1H-tetrazol-5-yl)biphenyl-4-yl]methylpyrimidin-4-one, reference compound]
Rate of inhibition (%) ([1]; compound 1 x 10⁻⁸ M): 5% | Rate of inhibition (%) ([1]; compound 3 x 10⁻⁸ M): 32%

CCCc1nc(C)c(Cc2ccc(CO)cc2)c(=O)n1Cc1ccc(-c2ccccc2-c2nnn[nH]2)cc1 [Example 3, 5-(4-hydroxymethylbenzyl)-6-methyl-2-propyl-3-[2'-(1H-tetrazol-5-yl)biphenyl-4-yl]methylpyrimidin-4-one]
deaths [2]: No deaths were observed | Rate of inhibition (%) ([1]; compound 1 x 10⁻⁸ M): 78% | Rate of inhibition (%) ([1]; compound 3 x 10⁻⁸ M): 98%

CCCc1nc(C)c(Cc2ccc(COC)cc2)c(=O)n1Cc1ccc(-c2ccccc2-c2nnn[nH]2)cc1 [Example 4, 5-(4-methoxymethylbenzyl)-6-methyl-2-propyl-3-[2'-(1H-tetrazol-5-yl)biphenyl-4-yl]methylpyrimidin-4-one]
Rate of inhibition (%) ([1]; compound 1 x 10⁻⁸ M): 36% | Rate of inhibition (%) ([1]; compound 3 x 10⁻⁸ M): 94%

CCc1nc(C)c(Cc2cccc(CO)c2)c(OCc2ccc(-c3ccccc3-c3nnn[nH]3)cc2)n1 [Example 15, 2-ethyl-5-(3-hydroxymethylbenzyl)-6-methyl-4-[2'-(1H-tetrazol-5-yl)biphenyl-4-yl]methoxypyrimidine]
deaths [3]: No deaths were observed

CCCc1nc(C)c(Cc2cccc(CO)c2)c(=O)n1Cc1ccc(-c2ccccc2-c2nnn[nH]2)cc1 [Example 19, 5-(3-hydroxymethylbenzyl)-6-methyl-2-propyl-3-[2'-(1H-tetrazol-5-yl)biphenyl-4-yl]methylpyrimidin-4-one]
deaths [3]: No deaths were observed | deaths [2]: No deaths were observed | Rate of inhibition (%) ([1]; compound 1 x 10⁻⁸ M): 100% | Rate of inhibition (%) ([1]; compound 3 x 10⁻⁸ M): 100%

CCCc1nc(C)c(Cc2cccc(COC)c2)c(=O)n1Cc1ccc(-c2ccccc2-c2nnn[nH]2)cc1 [Example 20, 5-(3-methoxymethylbenzyl)-6-methyl-2-propyl-3-[2'-(1H-tetrazol-5-yl)biphenyl-4-yl]methylpyrimidin-4-one]
deaths [2]: No deaths were observed | Rate of inhibition (%) ([1]; compound 1 x 10⁻⁸ M): 100% | Rate of inhibition (%) ([1]; compound 3 x 10⁻⁸ M): 100%

CCCCc1nc(C)c(Cc2cccc(CO)c2)c(=O)n1Cc1ccc(-c2ccccc2-c2nnn[nH]2)cc1 [Example 23, 2-butyl-5-(3-hydroxymethylbenzyl)-6-methyl-3-[2'-(1H-tetrazol-5-yl)biphenyl-4-yl]methylpyrimidin-4-one]
deaths [2]: No deaths were observed | Rate of inhibition (%) ([1]; compound 1 x 10⁻⁸ M): 95% | Rate of inhibition (%) ([1]; compound 3 x 10⁻⁸ M): 100%

CCc1nc(C)nc(OCc2ccc(-c3ccccc3-c3nnn[nH]3)cc2)c1Cc1cccc(CO)c1 [Example 47, 6-ethyl-5-(3-hydroxymethylbenzyl)-2-methyl-4-[2'-(1H-tetrazol-5-yl)biphenyl-4-yl]methoxypyrimidine]
deaths [3]: No deaths were observed
